Data published in patent US9382257B2, “Substituted pyrrolo[2,3-b]pyrazines as serine/threonine kinase inhibitors” (Genentech, Inc., priority 2002, dated 2016).
pIC50: −log10 of the molar value.

Molecular target: T1, human ERK-2 (Homo sapiens, UniProt P28482)
T1 construct: n-terminal 6-His fusion protein in E. coli and corresponding to aa 8-360; 6-His (N); made in house; host or cells: E. coli
Assay: Labchip Kinase ERK Assay (Example 3)
Format: biochemical
Conditions: LabChip Erk Assay (footnote 2), 25 μM ATP, Caliper LabChip 3000; read-out: ERK Inhibition IC50
Experimental: Compounds were tested in an enzymatic assay using human ERK-2 recombinantly expressed as an n-terminal 6-His fusion protein in E. coli and corresponding to aa 8-360. The substrate used was 5FAM-IPTSPITTTYFFFKKK-COOH (Caliper cat #760352). Test compounds were diluted in DMSO in 3-fold serial dilutions at 100× final concentrations. […] The assay was run at ambient temperature in a white 384-well polypropylene plate (Nunc, Inc of Naperville, Ill.; Cat. 267462) for 60 minutes then stopped by addition of EDTA. Percent substrate phosphorylated was determined by microfluidic separation using a Caliper LabChip 3000 instrument. Percent inhibition was plotted against compound concentration and IC50 values were determined using a four-parameter fit.

T1 sequence (P28482 8-360): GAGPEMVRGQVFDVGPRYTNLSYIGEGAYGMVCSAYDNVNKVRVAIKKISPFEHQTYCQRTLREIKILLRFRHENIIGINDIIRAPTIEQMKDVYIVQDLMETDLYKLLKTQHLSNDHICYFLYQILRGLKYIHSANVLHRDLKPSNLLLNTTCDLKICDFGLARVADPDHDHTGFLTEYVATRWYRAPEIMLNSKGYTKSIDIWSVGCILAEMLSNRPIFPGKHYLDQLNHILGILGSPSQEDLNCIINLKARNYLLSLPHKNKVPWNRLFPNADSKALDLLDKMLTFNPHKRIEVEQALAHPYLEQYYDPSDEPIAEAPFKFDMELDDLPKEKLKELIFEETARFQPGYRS

Row | pIC50 | Structure (SMILES)
1 | 7.66 | Cc1cc(-c2cnc3[nH]cc(-c4cnn(Cc5cccc(F)c5)c4)c3n2)ccn1 [I-12, 7-[1-(3-fluoro-benzyl)-1H-pyrazol-4-yl]-2-(2-methyl-pyridin-4-yl)-5H-pyrrolo[2,3-b]pyrazine]
2 | 6.98 | Cc1nn(C)c(C)c1-c1cnc2[nH]cc(-c3cnn(Cc4ccccc4)c3)c2n1 [I-13, 7-(1-benzyl-1H-pyrazol-4-yl)-2-(1,3,5-trimethyl-1H-pyrazol-4-yl)-5H-pyrrolo[2,3-b]pyrazine]
3 | 6.96 | Cc1noc(C)c1-c1cnc2[nH]cc(-c3cnn(Cc4ccccc4)c3)c2n1 [I-14, 7-(1-benzyl-1H-pyrazol-4-yl)-2-(3,5-dimethyl-isoxazol-4-yl)-5H-pyrrolo[2,3-b]pyrazine]
4 | 6.46 | c1ccc(Cn2cc(-c3c[nH]c4ncc(-c5ccc6cn[nH]c6c5)nc34)cn2)cc1 [I-19, 7-(1-benzyl-1H-pyrazol-4-yl)-2-(1H-indazol-6-yl)-5H-pyrrolo[2,3-b]pyrazine]
5 | 7.83 | Cc1[nH]ncc1-c1cnc2[nH]cc(-c3cnn(Cc4cccc(OC(F)(F)F)c4)c3)c2n1 [I-22, 2-(5-methyl-1H-pyrazol-4-yl)-7-[1-(3-trifluoromethoxy-benzyl)-1H-pyrazol-4-yl]-5H-pyrrolo[2,3-b]pyrazine]
6 | 7.18 | c1cncc(Cn2cc(-c3c[nH]c4ncc(-c5ccncc5)nc34)cn2)c1 [I-23, 2-pyridin-4-yl-7-(1-pyridin-3-ylmethyl-1H-pyrazol-4-yl)-5H-pyrrolo[2,3-b]pyrazine]
7 | 7.27 | Cc1cc(-c2c[nH]c3ncc(-c4ccncc4)nc23)cnc1F [II-1, 7-(6-fluoro-5-methyl-pyridin-3-yl)-2-pyridin-4-yl-5H-pyrrolo[2,3-b]pyrazine]
8 | 7.32 | Cc1cc(-c2c[nH]c3ncc(-c4ccncc4)nc23)cnc1Cl [II-6, 7-(6-chloro-5-methyl-pyridin-3-yl)-2-pyridin-4-yl-5H-pyrrolo[2,3-b]pyrazine]
